Data taken from US20110190392A1, “Polysaccharide Based Antimicrobial Formulations” (priority 2010, published 2011).

Key:
Assay type in all cases: cell-based
Ad-5 = experiment: Antiviral log reduction (Table 2B)
[1] = system: Proteus mirabilis ATCC 29245; experiment: MBC of NVC-422 (Table 2A); conditions: ATCC29245
Influenza A = experiment: Antiviral log reduction (Table 2B)
[2] = system: Escherichia coli ATCC 25922; experiment: MBC of NVC-422 (Table 2A); conditions: ATCC25922
[3] = system: Staphylococcus aureus ATCC 29213; experiment: MBC of NVC-422 (Table 2A); conditions: ATCC29213
[4] = system: Acinetobacter calcoaceticus ATCC 51432; experiment: MBC of NVC-422 (Table 2A); conditions: ATCC51432
[5] = system: Staphylococcus aureus [MRSA] ATCC 33591; experiment: MBC of NVC-422 (Table 2A)
[6] = system: Staphylococcus aureus ATCC 6358; experiment: MBC of NVC-422 (Table 2A); conditions: ATCC6358
[7] = system: Serratia marcescens ATCC 13880; experiment: MBC of NVC-422 (Table 2A); conditions: ATCC13880
[8] = system: Enterococcus faecium [VRE] ATCC 51559; experiment: MBC of NVC-422 (Table 2A)
[9] = system: Acinetobacter baumanii ATCC 19606; experiment: MBC of NVC-422 (Table 2A); conditions: Acinetobacter baumannii, ATCC19606
[10] = system: Pseudomonas aeruginosa ATCC 27853; experiment: MBC of NVC-422 (Table 2A); conditions: ATCC27853
[11] = system: Staphylococcus epidermidis ATCC 12228; experiment: MBC of NVC-422 (Table 2A); conditions: ATCC12228
[12] = system: Candida albicans ATCC 10231; experiment: MBC of NVC-422 (Table 2A); conditions: ATCC10231
[13] = system: Klebsiella pneumoniae ATCC 10031; experiment: MBC of NVC-422 (Table 2A); conditions: ATCC10031
[14] = system: Staphylococcus hominis ATCC 27844; experiment: MBC of NVC-422 (Table 2A); conditions: ATCC27844
Rhinovirus-39 = experiment: Antiviral log reduction (Table 2B)
[15] = system: Enterococcus faecalis ATCC 29212; experiment: MBC of NVC-422 (Table 2A); conditions: ATCC29212
[16] = system: Serratia marcescens ATCC 14756; experiment: MBC of NVC-422 (Table 2A); conditions: ATCC14756
[17] = system: Haemophilus influenzae ATCC 49144; experiment: MBC of NVC-422 (Table 2A); conditions: ATCC49144
[18] = system: Candida glabrata ATCC 90030; experiment: MBC of NVC-422 (Table 2A); conditions: Nakaseomyces glabratus, ATCC90030
[19] = system: Enterobacter aerogenes ATCC 51697; experiment: MBC of NVC-422 (Table 2A); conditions: Klebsiella aerogenes, ATCC51697
HSV-1 = experiment: Antiviral log reduction (Table 2B)
[20] = system: Staphylococcus sciuri ATCC 49575; experiment: MBC of NVC-422 (Table 2A); conditions: Mammaliicoccus sciuri, ATCC49575

Nc1ccn(C[C@@H](CO)OCP(=O)(O)O)c(=O)n1 [Cidofovir, reference compound]
Log Reduction (Ad-5; (Ad5/A549 control)/Cidofovir, column 0.001%): 0
Log Reduction (Ad-5; (Ad5/A549 control)/Cidofovir, column 0.01%): 0

CC(C)(CS(=O)(=O)O)N(Cl)Cl [NVC-422, N,N-dichloro-2,2-dimethyltaurine]
MBC [1]: 1 µg/mL
Log Reduction (Influenza A; concentration of NVC-422 0.01%): 0.3
Log Reduction (Influenza A; concentration of NVC-422 0.1%): 1.0
Log Reduction (Influenza A; concentration of NVC-422 1.0%): >3.8
MBC [2]: 2 µg/mL
MBC [3]: 2 µg/mL
MBC [4]: 2 µg/mL
MBC [5]: 4 µg/mL
MBC [6]: 2 µg/mL
MBC [7]: 1 µg/mL
MBC [8]: 0.5 µg/mL
MBC [9]: 4 µg/mL
MBC [10]: 1 µg/mL
MBC [11]: 0.25 µg/mL
MBC [12]: 32 µg/mL
MBC [13]: 0.25 µg/mL
MBC [14]: 4 µg/mL
Log Reduction (Rhinovirus-39; concentration of NVC-422 0.01%): 1.7
Log Reduction (Rhinovirus-39; concentration of NVC-422 0.1%): >1.5
MBC [15]: 0.5 µg/mL
MBC [16]: 2 µg/mL
MBC [17]: 0.5 µg/mL
MBC [18]: 16 µg/mL
MBC [19]: 0.5 µg/mL
Log Reduction (HSV-1; HSV-1 + 10% tears, concentration of NVC-422 0.001%): 4.5
Log Reduction (HSV-1; HSV-1 + 10% tears, concentration of NVC-422 0.01%): >4.5
Log Reduction (HSV-1; HSV-1, concentration of NVC-422 0.001%): >4.5
Log Reduction (HSV-1; HSV-1, concentration of NVC-422 0.01%): >4.5
Log Reduction (Ad-5; Ad-5 + 10% tears, concentration of NVC-422 0.001%): 1.0
Log Reduction (Ad-5; Ad-5 + 10% tears, concentration of NVC-422 0.01%): 1.7
Log Reduction (Ad-5; Ad-5 + 10% tears, concentration of NVC-422 0.1%): >3.8
Log Reduction (Ad-5; Ad-5, concentration of NVC-422 0.001%): 2.8
Log Reduction (Ad-5; Ad-5, concentration of NVC-422 0.01%): 4.3
Log Reduction (Ad-5; Ad-5, concentration of NVC-422 0.1%): >4.3
MBC [20]: 0.12 µg/mL
